# Results from patent US9512107B2, “Therapeutically active compositions and their methods of use” (Agios Pharmaceuticals, Inc., priority 2012, dated 2016).
# Where a chain is given by its changes, count along the chain named.
# Tests used:
# [1] = system: U87MG pLVX-IDH2 R140Q-neo cells; assay: U87MG pLVX-IDH2 R140Q-neo cell based assay, 2-HG in media by LC-MS at 48 hours; conditions: Homo sapiens, U-87 MG
# In short: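 U87MG cells stably expressing IDH2 R140Q were seeded overnight, then exposed to compound at 0.2% final DMSO at 37 °C, 5% CO2. 2-HG in the medium was quantified by LC-MS at 48 h. Growth inhibition was read by CellTiter-Glo luminescence at 72 h.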
# IDH2 R172K = molecular target: T1, IDH2 R172K (Homo sapiens, UniProt P48735, R172K); assay: IDH2 R172K enzymatic assay (NADPH cofactor depletion, diaphorase/resazurin readout); type: biochemical; conditions: read-out: Enz R172K
# T1 sequence (P48735 40-452 R172K): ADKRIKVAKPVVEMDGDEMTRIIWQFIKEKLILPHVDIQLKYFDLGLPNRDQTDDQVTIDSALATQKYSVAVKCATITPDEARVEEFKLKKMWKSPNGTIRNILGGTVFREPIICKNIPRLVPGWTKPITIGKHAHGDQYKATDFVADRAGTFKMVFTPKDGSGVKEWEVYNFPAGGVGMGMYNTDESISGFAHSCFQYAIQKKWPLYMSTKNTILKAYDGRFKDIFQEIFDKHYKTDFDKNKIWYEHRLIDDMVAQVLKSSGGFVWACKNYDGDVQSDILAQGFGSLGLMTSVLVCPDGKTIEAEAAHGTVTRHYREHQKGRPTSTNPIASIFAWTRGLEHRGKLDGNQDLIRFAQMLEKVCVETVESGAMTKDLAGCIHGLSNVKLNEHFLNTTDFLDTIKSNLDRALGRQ
# Method: Compounds are assayed for IDH2 R172K inhibitory activity through a cofactor depletion assay. […] The reaction is terminated by the addition of a second enzyme, diaphorase, and a corresponding substrate, resazurin. Diaphorase reduces resazurin to the highly fluorescent resorufin with the concomitant oxidation of NADPH to NADP, both halting the IDH2 reaction by depleting the available cofactor pool and facilitating quantitation of the amount of cofactor remaining after a specific time period through quantitative production of an easily detected fluorophore.
# The test compound is then incubated for one hour at room temperature with the enzyme; before starting the IDH2 reaction with the addition of 10 μl of substrate mix containing 50 μM NADPH and 6.3 mM α-KG in the buffer described above. After a further one hour of incubation at room temperature, the reaction is halted and the remaining NADPH measured through conversion of resazurin to resorufin by the addition of 25 μl Stop Mix (36 μg/ml diaphorase enzyme and 60 μM resazurin; in buffer).
# IDH2 R140Q = molecular target: T2, IDH2 R140Q (Homo sapiens, UniProt P48735, R140Q); assay: IDH2 R140Q enzymatic assay (cofactor depletion, similar format); type: biochemical; conditions: read-out: Enz R140Q
# T2 sequence (P48735 40-452 R140Q): T1 sequence (P48735 40-452 R172K) with R101Q, K133R
SMILES,IC50 [1] [nM],IC50 (IDH2 R172K) [nM],IC50 (IDH2 R140Q) [nM]
"FC(F)(F)c1cc(Nc2nc(NCC3CCOC3)nc(-c3cccc(C(F)(F)F)n3)n2)ccn1 (stereo not drawn) [Compound 547, N-(Tetrahydro-furan-3-ylmethyl)-N′-(2-trifluoromethyl-pyridin-4-yl)-6-(6-trifluoromethyl-pyridin-2-yl)-[1,3,5]triazine-2,4-diamine]",< 100,< 100,100 to 1000
"CCC(C)CNc1nc(Nc2ccncc2)nc(-c2ccccc2)n1 (stereo not drawn) [Compound 220, N^2-(2-methylbutyl)-6-phenyl-N^4-(pyridin-4-yl)-1,3,5-triazine-2,4-diamine]",< 100,100 to 1000,< 100
"CC(C)Nc1nc(Nc2cccc(S(=O)(=O)NC3CC3)c2)nc(-c2ccccc2)n1 [Compound 341, N-cyclopropyl-3-(4-(isopropylamino)-6-phenyl-1,3,5-triazin-2-ylamino)benzenesulfonamide]",< 100,100 to 1000,< 100
"CC(C)(CO)CNc1nc(Nc2ccncc2)nc(-c2ccccc2)n1 [Compound 259, 2,2-dimethyl-3-(4-phenyl-6-(pyridin-4-ylamino)-1,3,5-triazin-2-ylamino)propan-1-ol]",100 to 1000,> 10000,100 to 1000
"Nc1cccc(-c2nc(NCC3CC3)nc(Nc3cc(F)cc(F)c3)n2)n1 [Compound 699, 6-(6-aminopyridin-2-yl)-N2-(cyclopropylmethyl)-N4-(3,5-difluorophenyl)-1,3,5-triazine-2,4-diamine]",< 100,< 100,100 to 1000
"CC(C)Nc1nc(Nc2ccnc(C3CC3)c2)nc(-c2cccc(C(F)(F)F)n2)n1 [Compound 563, N-(2-Cyclopropyl-pyridin-4-yl)-N′-isopropyl-6-(6-trifluoromethyl-pyridin-2-yl)-[1,3,5]triazine-2,4-diamine]",< 100,< 100,100 to 1000
"Nc1ccnc(-c2nc(NCC(F)(F)F)nc(Nc3cc(F)cc(F)c3)n2)n1 [Compound 480, 6-(4-Amino-pyrimidin-2-yl)-N-(3,5-difluoro-phenyl)-N′-(2,2,2-trifluoro-ethyl)-[1,3,5]triazine-2,4-diamine]",< 100,100 to 1000,100 to 1000
"CC#Cc1cccc(-c2nc(Nc3cccc(F)c3)nc(NC(C)C)n2)n1 [Compound 467, N-(3-Fluoro-phenyl)-N′-isopropyl-6-(6-prop-1-ynyl-pyridin-2-yl)-[1,3,5]triazine-2,4-diamine]",100 to 1000,100 to 1000,100 to 1000
"CC(Nc1nc(Nc2ccncc2)nc(-c2ccccc2)n1)C(C)(C)C (stereo not drawn) [Compound 255, N^2-(3,3-dimethylbutan-2-yl)-6-phenyl-N^4-(pyridin-4-yl)-1,3,5-triazine-2,4-diamine]",< 100,100 to 1000,< 100
"CC(C)(O)CNc1nc(Nc2cc(F)cc(F)c2)nc(-c2cccc(N)n2)n1 [Compound 691, 1-(4-(6-aminopyridin-2-yl)-6-(3,5-difluorophenylamino)-1,3,5-triazin-2-ylamino)-2-methylpropan-2-ol]",< 100,100 to 1000,100 to 1000
"CC(C)(CO)CNc1nc(Nc2ccnc(C(F)(F)F)c2)nc(-c2cccc(Cl)n2)n1 [Compound 495, 3-[4-(6-Chloro-pyridin-2-yl)-6-(2-trifluoromethyl-pyridin-4-ylamino)-[1,3,5]triazin-2-ylamino]-2,2-dimethyl-propan-1-ol]",< 100,< 100,100 to 1000

# The next lines start with the values.
IC50 [1] [nM],IC50 (IDH2 R172K) [nM],IC50 (IDH2 R140Q) [nM],SMILES
< 100,100 to 1000,< 100,"O=C(Nc1nc(Nc2ccccc2)nc(-c2ccccc2)n1)C1CC1 [Compound 233, N-(4-phenyl-6-(phenylamino)-1,3,5-triazin-2-yl)cyclopropanecarboxamide]"
100 to 1000,100 to 1000,< 100,CC(C)Nc1nc(Nc2ccccc2)nc(-c2ccc(F)cc2F)n1 [Compound 118]
100 to 1000,100 to 1000,< 100,"CCCCNc1nc(Nc2ccncc2)nc(-c2ccccc2)n1 [Compound 211, N^2-butyl-6-phenyl-N^4-(pyridin-4-yl)-1,3,5-triazine-2,4-diamine]"
100 to 1000,100 to 1000,< 100,"FC1(F)CCC(Nc2nc(Nc3ccncc3)nc(-c3ccccc3)n2)CC1 [Compound 254, N^2-(4,4-difluorocyclohexyl)-6-phenyl-N^4-(pyridin-4-yl)-1,3,5-triazine-2,4-diamine]"
< 100,< 100,100 to 1000,"CC(C)Nc1nc(Nc2ccnc(C(F)(F)F)c2)nc(-c2cccc(C(C)(F)F)n2)n1 [Compound 582, 6-[6-(1,1-Difluoro-ethyl)-pyridin-2-yl]-N-isopropyl-N′-(2-trifluoromethyl-pyridin-4-yl)-[1,3,5]triazine-2,4-diamine]"
< 100,100 to 1000,< 100,"CC(C)CNc1nc(Nc2ccncc2)nc(-c2ccccc2)n1 [Compound 190, N^2-isobutyl-6-phenyl-N^4-(pyridin-4-yl)-1,3,5-triazine-2,4-diamine]"
< 100,< 100,< 100,"CC(C)Nc1nc(Nc2cc(F)cc(F)c2)nc(-c2nc(F)ccc2F)n1 [Compound 460, N-(3,5-Difluoro-phenyl)-6-(3,6-difluoro-pyridin-2-yl)-N′-isopropyl-[1,3,5]triazine-2,4-diamine]"
< 100,< 100,100 to 1000,"CC(F)(F)c1cccc(-c2nc(NCC3CC3)nc(Nc3cc(F)cc(F)c3)n2)n1 [Compound 584, N2-(cyclopropylmethyl)-6-(6-(1,1-difluoroethyl)pyridin-2-yl)-N4-(3,5-difluorophenyl)-1,3,5-triazine-2,4-diamine]"
< 100,< 100,100 to 1000,"CC(F)(F)c1cccc(-c2nc(NCC3CC3)nc(Nc3cc(F)cc(S(C)(=O)=O)c3)n2)n1 [Compound 612, N2-(cyclopropylmethyl)-6-(6-(1,1-difluoroethyl)pyridin-2-yl)-N4-(3-fluoro-5-(methylsulfonyl)phenyl)-1,3,5-triazine-2,4-diamine]"
< 100,100 to 1000,< 100,"CC(C)CCNc1nc(Nc2ccncc2)nc(-c2ccccc2)n1 [Compound 212, N^2-isopentyl-6-phenyl-N^4-(pyridin-4-yl)-1,3,5-triazine-2,4-diamine]"
< 100,100 to 1000,< 100,FC(F)(F)CNc1nc(Nc2ccccc2)nc(-c2ccccc2)n1 [Compound 126]
100 to 1000,1000 to 10000,100 to 1000,"CC(C)C(CO)Nc1nc(Nc2ccccc2)nc(-c2ccccc2)n1 (stereo not drawn) [Compound 242, 3-methyl-2-(4-phenyl-6-(phenylamino)-1,3,5-triazin-2-ylamino)butan-1-ol]"
< 100,< 100,100 to 1000,"CC1(Nc2nc(Nc3ccnc(C(F)(F)F)c3)nc(-c3cccc(C(F)(F)F)n3)n2)CC1 [Compound 533, N-(1-Methyl-cyclopropyl)-6-(6-trifluoromethyl-pyridin-2-yl)-N′-(2-trifluoromethyl-pyridin-4-yl)-[1,3,5]triazine-2,4-diamine]"
